Laboratory results reported in patent publication US8030354B2, “Substituted biphenyl GPR40 modulators” (Amgen Inc., priority 2007, dated 2011).
pEC50: −log10 of the molar value.

Target: GPR40 (Homo sapiens, UniProt O14842)
Assay: Cell-based aequorin assay (CHO cells stably expressing GPR40 and aequorin)
Design: expressed in transfected cells; host or cells: CHO cells stably transfected with GPR40 and aequorin
Settings: activation of human GPR40, CHO cells, 0.01% HSA
Procedure: Briefly, the Aequorin assays were performed on doubly stable CHO cells expressing GPR40 and Aequorin DNA. […] The luminescence was recorded over a period of 20 seconds with a Microlumat luminometer (Berthold). […] The inositol phosphate assay was performed on an A9 cell line stably transfected with GPR40 (A9_GPR40). The cells were incubated with different concentrations of compounds and [^3H] inositol accumulation was measured after 1 hour.
Cell-based aequorin assays were employed to characterize the modulatory activity of compounds on the GPR40 signaling pathway. In an exemplary assay, CHO cells were stably transfected with both GPR40 and Aequorin (Euroscreen). Cells were detached from the tissue culture dish with 2 mL of trypsin (0.25%(w/v)). Trypsinization was halted with 28 mL of Hanks Buffered Salt Solution containing 20 mM Hepes (H/HBSS) and 0.01% fatty acid-free human serum albumin (HSA). Coelantrazine is added to 1 ug/mL, and the cells were incubated for 2 hours at room temperature. Compounds were dissolved in DMSO for preparation of 10 mM stock solutions. Compounds were diluted in H/HBSS containing 0.01% HSA. Serial dilutions of the test compounds were prepared to determine dose response.
Aequorin luminescence measurements were made using an EG&G Berthold 96-well luminometer, and the response was measured over a 20 second interval after cells and compounds were mixed. The maximum relative light units was plotted to determine dose response. The EC50 (effective concentration to reach 50% maximal response) was determined from the dose response plot.

Chain of GPR40 (O14842 whole entry): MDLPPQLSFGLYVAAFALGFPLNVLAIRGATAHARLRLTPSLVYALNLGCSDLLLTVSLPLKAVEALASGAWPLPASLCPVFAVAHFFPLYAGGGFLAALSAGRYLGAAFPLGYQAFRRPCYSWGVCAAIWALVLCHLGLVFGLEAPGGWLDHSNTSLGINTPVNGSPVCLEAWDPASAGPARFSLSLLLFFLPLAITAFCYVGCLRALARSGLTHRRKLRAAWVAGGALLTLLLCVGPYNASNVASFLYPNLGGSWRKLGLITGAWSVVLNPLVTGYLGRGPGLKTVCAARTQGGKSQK

| pEC50 | Structure (SMILES) |
| --- | --- |
| 5.00 to 6.00 | CSc1cccc(-c2ccc(COc3cccc([C@H](C)CC(=O)O)c3)cc2C(C)(C)C)c1 (single isomer, unassigned) [Example 3, (3R)-3-(3-(((2-(1,1-Dimethylethyl)-3′-(methylsulfanyl)-1,1′-biphenyl-4-yl)methyl)oxy)phenyl)butanoic acid or (3S)-3-(3-(((2-(1,1-dimethylethyl)-3′-(methylsulfanyl)-1,1′-biphenyl-4-yl)methyl)oxy)phenyl)butanoic acid] |
| 5.00 to 6.00 | C=C[C@H](CC(=O)O)c1cccc(OCc2ccc(-c3cc(OC)ccc3F)c(C(C)(C)C)c2)c1 (single isomer, unassigned) [Example 15, (3S)-3-(3-(((2-(1,1-Dimethylethyl)-2′-fluoro-5′-(methyloxy)-1,1′-biphenyl-4-yl)methyl)oxy)phenyl)-4-pentenoic acid or (3R)-3-(3-(((2-(1,1-dimethylethyl)-2′-fluoro-5′-(methyloxy)-1,1′-biphenyl-4-yl)methyl)oxy)phenyl)-4-pentenoic acid] |
| 5.00 to 6.00 | C=C[C@H](CC(=O)O)c1cccc(OCc2ccc(-c3cc(OC)ccc3F)c(OCCCC)c2)c1 (single isomer, unassigned) [Example 16, (3S)-3-(3-(((2-(Butyloxy)-2′-fluoro-5′-(methyloxy)-1,1′-biphenyl-4-yl)methyl)oxy)phenyl)-4-pentenoic acid or (3R)-3-(3-(((2-(butyloxy)-2′-fluoro-5′-(methyloxy)-1,1′-biphenyl-4-yl)methyl)oxy)phenyl)-4-pentenoic acid] |
| 5.00 to 6.00 | C=CC(CC(=O)O)c1cccc(OCc2ccc(-c3cc(OC)ccc3F)c(C(C)(C)C)c2)c1 (single isomer, unassigned) [Example 19, (3R)-3-(3-(((2-(1,1-Dimethylethyl)-2′-fluoro-5′-(methyloxy)-1,1′-biphenyl-4-yl)methyl)oxy)phenyl)-4-pentenoic acid or (3S)-3-(3-(((2-(1,1-dimethylethyl)-2′-fluoro-5′-(methyloxy)-1,1′-biphenyl-4-yl)methyl)oxy)phenyl)-4-pentenoic acid] |
| 5.00 to 6.00 | CCCCOc1cc(COc2cccc([C@H](C)CC(=O)O)c2)ccc1-c1ccc(OC)cc1 (single isomer, unassigned) [Example 21, (3R)-3-(3-(((2-(Butyloxy)-4′-(methyloxy)-1,1′-biphenyl-4-yl)methyl)oxy)phenyl)butanoic acid or (3S)-3-(3-(((2-(butyloxy)-4′-(methyloxy)-1,1′-biphenyl-4-yl)methyl)oxy)phenyl)butanoic acid] |
| 5.00 to 6.00 | CCCCOc1cc(COc2cccc([C@H](C)CC(=O)O)c2)ccc1-c1cccc(OCC)c1 (single isomer, unassigned) [Example 22, (3R)-3-(3-(((2-(Butyloxy)-3′-(ethyloxy)-1,1′-biphenyl-4-yl)methyl)oxy)phenyl)butanoic acid or (3S)-3-(3-(((2-(butyloxy)-3′-(ethyloxy)-1,1′-biphenyl-4-yl)methyl)oxy)phenyl)butanoic acid] |
| 5.00 to 6.00 | CCCCOc1cc(COc2cccc([C@H](C)CC(=O)O)c2)ccc1-c1cc(OCC)ccc1F (single isomer, unassigned) [Example 23, (3R)-3-(3-(((2-(Butyloxy)-5′-(ethyloxy)-2′-fluoro-1,1′-biphenyl-4-yl)methyl)oxy)phenyl)butanoic acid or (3S)-3-(3-(((2-(butyloxy)-5′-(ethyloxy)-2′-fluoro-1,1′-biphenyl-4-yl)methyl)oxy)phenyl)butanoic acid] |
| 5.00 to 6.00 | CCCCOc1cc(COc2cccc([C@H](C)CC(=O)O)c2)ccc1-c1ccccc1F (single isomer, unassigned) [Example 24, (3R)-3-(3-(((2-(Butyloxy)-2′-fluoro-1,1′-biphenyl-4-yl)methyl)oxy)phenyl)butanoic acid or (3S)-3-(3-(((2-(butyloxy)-2′-fluoro-1,1′-biphenyl-4-yl)methyl)oxy)phenyl)butanoic acid] |
| < 5.00 | CCCCOc1cc(COc2cccc([C@H](C)CC(=O)O)c2)ccc1-c1ccccc1OC (single isomer, unassigned) [Example 25, (3R)-3-(3-(((2-(Butyloxy)-2′-(methyloxy)-1,1′-biphenyl-4-yl)methyl)oxy)phenyl)butanoic acid or (3S)-3-(3-(((2-(butyloxy)-2′-(methyloxy)-1,1′-biphenyl-4-yl)methyl)oxy)phenyl)butanoic acid] |
| 6.00 to 7.00 | COc1ccc(F)c(-c2ccc(COc3cccc([C@H](C)CC(=O)O)c3)cc2OC2CCCCO2)c1 (single isomer, unassigned) [Example 26, (3R)-3-(3-(((2′-Fluoro-5′-(methyloxy)-2-(tetrahydro-2H-pyran-2-yloxy)-1,1′-biphenyl-4-yl)methyl)oxy)phenyl)butanoic acid or (3S)-3-(3-(((2′-fluoro-5′-(methyloxy)-2-(tetrahydro-2H-pyran-2-yloxy)-1,1′-biphenyl-4-yl)methyl)oxy)phenyl)butanoic acid] |
| 5.00 to 6.00 | CCCOc1cc(COc2cccc([C@H](C)CC(=O)O)c2)ccc1-c1cc(OC)ccc1F (single isomer, unassigned) [Example 27, (3R)-3-(3-(((2′-Fluoro-5′-(methyloxy)-2-(propyloxy)-1,1′-biphenyl-4-yl)methyl)oxy)phenyl)butanoic acid or (3S)-3-(3-(((2′-fluoro-5′-(methyloxy)-2-(propyloxy)-1,1′-biphenyl-4-yl)methyl)oxy)phenyl)butanoic acid] |
| 6.00 to 7.00 | CCCCCOc1cc(COc2cccc([C@H](C)CC(=O)O)c2)ccc1-c1cc(OC)ccc1F (single isomer, unassigned) [Example 28, (3R)-3-(3-(((2′-Fluoro-5′-(methyloxy)-2-(pentyloxy)-1,1′-biphenyl-4-yl)methyl)oxy)phenyl)butanoic acid or (3S)-3-(3-(((2′-fluoro-5′-(methyloxy)-2-(pentyloxy)-1,1′-biphenyl-4-yl)methyl)oxy)phenyl)butanoic acid] |

| Structure (SMILES) | pEC50 |
| --- | --- |
| COc1ccc(F)c(-c2ccc(COc3cccc([C@H](CC(=O)O)C4CC4)c3)cc2C(C)(C)C)c1 (single isomer, unassigned) [Example 10, (3R)-3-Cyclopropyl-3-(3-(((2-(1,1-dimethylethyl)-2′-fluoro-5′-(methyloxy)-1,1′-biphenyl-4-yl)methyl)oxy)phenyl)propanoic acid or (3S)-3-cyclopropyl-3-(3-(((2-(1,1-dimethylethyl)-2′-fluoro-5′-(methyloxy)-1,1′-biphenyl-4-yl)methyl)oxy)phenyl)propanoic acid] | 5.00 to 6.00 |
| CCCCOc1cc(COc2cccc([C@H](CC(=O)O)C3CC3)c2)ccc1-c1cc(OC)ccc1F (single isomer, unassigned) [Example 11, (3R)-3-(3-(((2-(Butyloxy)-2′-fluoro-5′-(methyloxy)-1,1′-biphenyl-4-yl)methyl)oxy)phenyl)-3-cyclopropylpropanoic acid or (3S)-3-(3-(((2-(butyloxy)-2′-fluoro-5′-(methyloxy)-1,1′-biphenyl-4-yl)methyl)oxy)phenyl)-3-cyclopropylpropanoic acid] | 5.00 to 6.00 |
